Experimental data as given in US7572773B2, “Single dose fast dissolving azithromycin” (Pliva Hrvatska D.O.O., priority 2003, dated 2009).
One block for each compound: values may come before it.

Experiments:
[1] = Comparative dissolution profiles of azithromycin polymorph Ik vs. dihydrate, USP Method 2; format: physicochemical; settings: for percent dissolved: pH 6 (37° C.), USP Method 2
Method: In order to compare the behavior in vitro of the fast dissolving azithromycin polymorph (Formula Ik) with the commercial azithromycin dihydrate product, dissolution profiles have been determined at pH 6.0 at 37° C. The comparative dissolution profiles were determined by USP Method 2, PharmaTest Dissolution Tester, PTW SII; the content of dissolved azithromycin was measured by HPLC.

[2] = Analysis of adverse events observed during human PK study; format: in vivo
clinical = settings: human, in vivo, 500 mg
Method: (§1) The test was an open, mono-centric, fasted human study. 6 human subjects were studied using a full cross-over experimental design experiment. […] This crossover experiment was repeated a total of three times by intubations of the test subjects: the first involved GI site-specific administration to the stomach, the second involved GI site-specific administration to the duodenum, and the third involved GI site-specific administration to the jejunum.
(§2) The kinetics parameters were determined model-independently and the parameters were determined directly from the measured concentrations.

[3] = In vivo rat pharmacokinetic study, plasma and whole blood concentration time curves after p.o. administration; settings: rats, 50 mg/kg suspension; for ΔIa/dihydrate, Cmax / ΔIa/dihydrate, AUC(0-12): Ia relative to dihydrate; for ΔIa/dihydrate, AUC(0-12): monohydrate, 50 mg/kg
Text: 32 animals (Wistar Han rats, fasted) were studied using a cross-over experimental design experiment. A non-compartmental analysis was used to determine the concentrations of the respective materials in whole blood and plasma as a function of time.

[4] = Human pharmacokinetic study, plasma concentration after GI site-specific administration of aqueous suspension; settings: 500 mg aqueous suspension; for ΔIa/dihydrate, AUC / ΔIa/dihydrate, Cmax: Ia relative to dihydrate
Method: as §1, §2

[5] = Comparative dissolution profiles of azithromycin monohydrate Ia vs. dihydrate, USP Method 2; format: physicochemical; settings: pH 1.2, 3.0, 6.0 and 6.8, 37° C., 900 ml buffer, 100 rpm, FIGS. 1-4
Method: In order to compare the behavior in vitro of the fast dissolving azithromycin monohydrate (Formula Ia) with the commercial azithromycin dihydrate product, dissolution profiles have been determined at pH 1.2, pH 3.0, pH 6.0, and pH 6.8, at 37° C. The comparative dissolution profiles were determined in 900 ml buffer solution, at 100 rpm, by USP Method 2, PharmaTest Dissolution Tester, PTW SII; the content of dissolved azithromycin was measured by HPLC. The data thus obtained are plotted in FIGS. 1-4, respectively.

[6] = site-specific administration to duodenum
[7] = site-specific administration to jejunum
[8] = site-specific administration to stomach

percent dissolved ([1]; 5 minutes, listed as Commercial 9-deoxo-9a-aza-9a-methyl-9a-homoerythromycin A Dihydrate, dihydrate): 14.5%
percent dissolved ([1]; 10 minutes, listed as Commercial 9-deoxo-9a-aza-9a-methyl-9a-homoerythromycin A Dihydrate, dihydrate): 27.3%
percent dissolved ([1]; 20 minutes, listed as Commercial 9-deoxo-9a-aza-9a-methyl-9a-homoerythromycin A Dihydrate, dihydrate): 44.2%
percent dissolved ([1]; 45 minutes, listed as Commercial 9-deoxo-9a-aza-9a-methyl-9a-homoerythromycin A Dihydrate, dihydrate): 69.1%
Cmax (clinical): 94 ng/mL
Structure (SMILES): CC[C@H]1OC(=O)[C@H](C)[C@@H](O[C@H]2C[C@@](C)(OC)[C@@H](O)[C@H](C)O2)[C@H](C)[C@@H](O[C@@H]2O[C@H](C)C[C@H](N(C)C)[C@H]2O)[C@](C)(O)C[C@@H](C)CN(C)[C@H](C)[C@@H](O)[C@]1(C)O [Azithromycin Dihydrate, 9-deoxo-9a-aza-9a-methyl-9a-homoerythromycin A dihydrate]
adverse events with a possible causal relationship ([2]; human, in vivo): 3 events

percent dissolved ([1]; 5 minutes): 99.8%
percent dissolved ([1]; 10 minutes): 99.9%
percent dissolved ([1]; 20 minutes): 97.1%
percent dissolved ([1]; 45 minutes): 97.6%
dissolution profile compared to commercially available azithromycin dihydrate ([1]; pH 6.0, 37° C.): dissolves faster
Structure (SMILES): CC[C@H]1OC(=O)[C@H](C)[C@@H](O[C@H]2C[C@@](C)(OC)[C@@H](O)[C@H](C)O2)[C@H](C)[C@@H](O[C@@H]2O[C@H](C)C[C@H](N(C)C)[C@H]2O)[C@](C)(O)C[C@@H](C)CN(C)[C@H](C)[C@@H](O)[C@]1(C)O [Pseudopolymorph Ik, 9-deoxo-9a-aza-9a-methyl-9a-homoerythromycin A Pseudopolymorph Ik]

AUC(0-12) ([3]; plasma): 5148 nghr/ml
Cmax ([3]; plasma): 1006 ng/mL
ΔIa/dihydrate, Cmax ([3]; plasma): +37%
ΔIa/dihydrate, AUC(0-12) ([3]; plasma, listed as azithromycin monohydrate Ia): ~29%
ΔIa/dihydrate, AUC(0-12) ([3]; plasma): +29%
AUC(0-12) ([3]; whole blood): 21204 nghr/ml
Cmax ([3]; whole blood): 5061 ng/mL
ΔIa/dihydrate, Cmax ([3]; whole blood): +97%
ΔIa/dihydrate, AUC(0-12) ([3]; whole blood, listed as azithromycin monohydrate Ia): approximately 27%
ΔIa/dihydrate, AUC(0-12) ([3]; whole blood): +27%
ΔIa/dihydrate, AUC ([4]; duodenum): −13%
ΔIa/dihydrate, Cmax ([4]; duodenum): +10%
ΔIa/dihydrate, AUC ([4]; jejunum): +98%
ΔIa/dihydrate, Cmax ([4]; jejunum): +60%
AUC [4, 6]: 719 nghr/ml
Cmax [4, 6]: 129 ng/mL
AUC [4, 7]: 836 nghr/ml
Cmax [4, 7]: 99 ng/mL
AUC [4, 8]: 813 nghr/ml
Cmax [4, 8]: 143 ng/mL
ΔIa/dihydrate, AUC ([4]; stomach): +19%
ΔIa/dihydrate, Cmax ([4]; stomach): +52%
dissolution profile compared to commercially available azithromycin dihydrate [5]: dissolves faster
Structure (SMILES): CC[C@H]1OC(=O)[C@H](C)[C@@H](O[C@H]2C[C@@](C)(OC)[C@@H](O)[C@H](C)O2)[C@H](C)[C@@H](O[C@@H]2O[C@H](C)C[C@H](N(C)C)[C@H]2O)[C@](C)(O)C[C@@H](C)CN(C)[C@H](C)[C@@H](O)[C@]1(C)O.O [azithromycin monohydrate]
incidence of adverse effects compared to azithromycin dihydrate product ([2]; human PK study, single dose administration of a comparable amount): lower incidence of adverse effects
